Source: PMC9774241, “Associating Biological Activity and Predicted Structure of Antimicrobial Peptides from Amphibians and Insects” (Antibiotics, 2022)
Values after ≈ are worked out from the molar mass of the structure shown. “Also recorded” adds a separate entry of the source. Residues, ends and D or L forms follow the SMILES beside them. No end group written: not given here.

How the values were obtained:
[1] = system: Escherichia coli ATCC 25922; assay type: cell-based; details: broth microdilution in MHB, peptide 128 down to 0.5 µg/mL, 20–24 h at 37 °C, no visible growth; range of three independent experiments
How it was run: (§1)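 CLSI broth microdilution in MHB, adapted for cationic peptides, in polypropylene plates; peptides 2-fold from 128 to 0.5 µg/mL, inoculum 2–8 × 10^5 cfu/mL. Incubated 20–24 h at 37 °C; MIC = lowest concentration with no visible growth.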

[2] = system: Salmonella enterica serovar Enteritidis (human clinical isolate); assay type: cell-based; details: broth microdilution in MHB, peptide 128 down to 0.5 µg/mL, 20–24 h at 37 °C, no visible growth; range of three independent experiments
How it was run: as §1

[3] = system: Staphylococcus aureus ATCC 29213; assay type: cell-based; details: broth microdilution in MHB, peptide 128 down to 0.5 µg/mL, 20–24 h at 37 °C, no visible growth; range of three independent experiments
How it was run: as §1

porcine red blood cells = assay: Hemolysis assay (HC50); assay type: cell-based, pig; details: for hemolytic activity (in words): porcine RBCs, highest concentration tested 128 µg/mL
Description: Peptides were evaluated for toxicity using three independent hemolysis experiments. Whole blood from healthy donor pigs, supplemented with Na Citrate, was purchased from Lampire Biological Laboratories (Pipersville, PA, USA). Red blood cells (RBCs) were washed and isolated by three centrifugation cycles using Roswell Park Memorial Institute medium (RPMI; Thermo-Fisher Scientific) to create a 1% (v/v) RBC solution. […] Following a minimum 30 min incubation at 37 °C, plates were centrifuged and ½ volume from each supernatant was transferred to a new 96-well plate. The absorbance of these wells was measured at 415 nm. To quantify hemolytic activity and determine the AMP concentration that lyses 50% of the RBCs (HC50), absorbance reading from wells containing RBCs treated with 11 μL of a 2% TritonX-100 detergent solution (TX-100) or RPMI (AMP solvent-only) were used to define 100% and 0% hemolysis, respectively. All centrifugation steps were performed at 500× g for five minutes in an Allegra-6R centrifuge (Beckman Coulter, Brea, CA, USA).

HEK293 cells = assay: alamarBlue cell viability assay (cytotoxicity); assay type: cell-based, human
Description: The human embryonic kidney cell line HEK293 and the corresponding growth media and supplements were purchased from the ATCC. The cells were maintained in Eagle’s Minimum Essential Medium (EMEM) supplemented with 10% fetal bovine serum (FBS) and 1% Penicillin-Streptomycin solution and grown in a 5% CO2 incubator at 37 °C. Approximately 1 × 10^4 cells were distributed to each well of a 96-well flat-bottom cell culture plate (Corning #3595, Corning, NY, USA). Cells were incubated overnight to allow them to adhere. Lyophilized 80 µg peptide aliquots were resuspended to 1.28 mg/mL with UltraPure deionized water and serially diluted in polypropylene 96-well microtiter plates from 128-0.5 µg/mL. TX-100 was diluted to 2% in UltraPure deionized water and added as a positive control. Complete growth medium was added to the peptides and TX-100 containing wells. Spent growth medium of wells with adhered cells was replaced with the contents of wells containing serially diluted peptides or TX-100. Cells were incubated for four hours at 37 °C in 5% CO2 incubator. Growth medium containing peptides or TX-100 was replaced with fresh growth medium containing 10% (v/v) alamarBlue (Bio-Rad Laboratories, Hercules, CA, USA) and incubated for 20 h. Fluorescence was measured at excitation of 540 nm and emission of 590 nm in a Cytation 5 plate reader (Agilent BioTek, Winooski, VT, USA) and results recorded and analyzed with Gen5 software (Agilent BioTek, Winooski, VT, USA). The average fluorescence reads of TX-100 and growth media only wells were used to calculate 0% and 100% cell viability, respectively. The percentage of viable cells at each peptide concentration was determined by: cell viability%=1−fluorescence100% viable− fluorescencepeptide/fluorescence100% viable−fluorescence0% viable×100%

Molecule	MIC, E. coli ATCC 25922 [1]	MIC, Salmonella Enteritidis [2]	MIC, S. aureus ATCC 29213 [3]	HC50 (hemolytic 50 concentration) (porcine red blood cells; 1% porcine RBCs in RPMI, peptide 128 down to 1 µg/mL, minimum 30 min at 37 °C, absorbance 415 nm, three independent experiments)	hemolytic activity (in words) (porcine red blood cells)	HEK293 cell viability (HEK293 cells; at 128 µg/mL, mean of three independent experiments)	cytotoxicity to HEK293 cells (in words) (HEK293 cells; at concentrations lower than 128 µg/mL)	toxicity to HEK293 cells (in words) (HEK293 cells; any of the concentrations tested, up to 128 µg/mL)
CC[C@H](C)[C@H](NC(=O)CNC(=O)[C@H](CCCNC(=N)N)NC(=O)[C@H](CC(C)C)NC(=O)[C@H](CC(C)C)NC(=O)CN)C(=O)N[C@@H](CC(C)C)C(=O)NCC(=O)N[C@@H](C)C(=O)NCC(=O)N[C@@H](CCCCN)C(=O)N[C@@H](CCCCN)C(=O)N[C@H](C(=O)N[C@H](C(=O)N[C@@H](CS)C(=O)NCC(=O)N[C@@H](CC(C)C)C(=O)N[C@@H](CO)C(=O)NCC(=O)N[C@@H](CC(C)C)C(=O)N[C@@H](CS)C(=O)O)C(C)C)[C@@H](C)CC [OdMa2] (H-GLLRGILGAGKKIVCGLSGLC-OH)	4 µg/mL (≈ 1.97 µM)	8 to 16 µg/mL	4 to 8 µg/mL	128 µg/mL	–	–	–	–
ITEPVGTKAPTFTSELRGGWLKKR [PaVa3]	> 128 µg/mL	> 128 µg/mL	> 128 µg/mL	–	–	–	–	–
KEERGAPKGCWTKSYPPKPCSGKR [PeNi13]	> 128 µg/mL	> 128 µg/mL	> 128 µg/mL	–	–	–	–	–
KIKIPWGKVKDFLVGGMKAVGKK [TeBi1]	1 to 2 µg/mL	4 to 8 µg/mL	4 to 8 µg/mL	–	not hemolytic at the concentrations tested	40%	low or no cytotoxicity at lower concentrations	–
KLFLTLWKLKR [NaVi3]	8 to 16 µg/mL	64 µg/mL	128 µg/mL	–	–	–	–	–
KYHHIKLRHGRHRRTIH [PaVa2]	> 128 µg/mL	> 128 µg/mL	> 128 µg/mL	–	–	–	–	–
RKIIAVSVHKLCRVKR [BoUs1]	64 to 128 µg/mL	64 µg/mL	> 128 µg/mL	–	–	–	–	–
RPRPQQVPPRPPHPRLRR [PaVa1]	–	–	–	–	not toxic	–	–	–
RPRWSHRSRR [PeNi18]	> 128 µg/mL	> 128 µg/mL	> 128 µg/mL	–	–	–	–	–
RRAIFASIRGYLGLRKR [MyGu1]	4 µg/mL	8 to 16 µg/mL	128 µg/mL	–	–	–	–	–
SWLSKSVKKLVNKKNYTRLEKLAKKKLFNE [TeRu4]	1 µg/mL	2 to 4 µg/mL	–	–	not hemolytic at the concentrations tested; also recorded: not toxic	–	–	not toxic
TALKSLSILKKLAKLNM [PoSn2, rAMPage-discovered AMP, Polistes snelleni]	64 to 128 µg/mL	> 128 µg/mL	> 128 µg/mL	–	–	–	–	–
VAAFAIIGCLCCRRPRR [PoRo1]	> 128 µg/mL	> 128 µg/mL	> 128 µg/mL	–	–	–	–	–
VKCRVRR [ApMe1]	> 128 µg/mL	> 128 µg/mL	> 128 µg/mL	–	–	–	–	–
VPFGLKPR [TeRu1]	> 128 µg/mL	> 128 µg/mL	> 128 µg/mL	–	–	–	–	–
WALRWKTR [PaVi1]	> 128 µg/mL	> 128 µg/mL	> 128 µg/mL	–	–	–	–	–
